This is an account of results in ChEMBL document CHEMBL5244209, “Antiplasmodial and antimalarial activities of quinolone derivatives: An overview” (Eur J Med Chem, 2018).

Holding throughout (format): functional, organism-based
The subject of assay [1] is Plasmodium falciparum. Put plainly: Antiplasmodial activity against Plasmodium falciparum D6 infected in human Erythrocyte measured after 72 hrs by SYBR green fluorescence dye based microplate reader analysis.
Assay [2] relates to Plasmodium falciparum. Put plainly: Antiplasmodial activity against Plasmodium falciparum Tm90-C2B infected in human Erythrocyte measured after 72 hrs by SYBR green fluorescence dye based microplate reader analysis.
The subject of assay [3] is Plasmodium falciparum. Put plainly: Antiplasmodial activity against Plasmodium falciparum Dd2 infected in human Erythrocyte measured after 72 hrs by SYBR green fluorescence dye based microplate reader analysis.
For assay [4], the system named is Plasmodium falciparum. The experiment in a line: Antimalarial activity against Antimalarial activity against chloroquine-sensitive Plasmodium falciparum FCR-3.
Assay [5] deals with Plasmodium falciparum. The experiment in a line: Antiplasmodial activity against chloroquine-sensitive Plasmodium falciparum 3D7 infected in human erythrocyte incubated for 72 hrs by SYBR green I staining based fluorescence assay. Particulars: 3D7, Erythrocyte.

As usually defined, the IC50 is the point on the concentration scale where inhibition reaches its midpoint. Read a low IC50 as greater potency in that assay. For `CCCCCCCc1c(C)[nH]c2cc(F)cc(F)c2c1=O`, the IC50 in the assay on Plasmodium falciparum [1] came to 0.1 nM; with Plasmodium falciparum [2], 81 nM; in the assay on Plasmodium falciparum [3], 1 nM.

`Cn1cc(C(=O)N/N=C/c2ccncc2)c(=O)c2cc(F)ccc21` gave a concentration for half-maximal inhibition (IC50) with Plasmodium falciparum [4] of over 100000 nM.

Take `CCCCCCCc1c(C)[nH]c2cc(O)ccc2c1=O`: the IC50 turned out to be 759 nM with Plasmodium falciparum [1], 824 nM with Plasmodium falciparum [2] and 805 nM in the assay on Plasmodium falciparum [3].

`CCCCCCCc1c(C)[nH]c2cc(C#N)ccc2c1=O`: the IC50 in the assay with Plasmodium falciparum [1] came to 18 nM; in the assay on Plasmodium falciparum [3], 45 nM.

In the assay on Plasmodium falciparum [5], `C=CC1CC2CCC1CC2[C@H](OC(=O)[C@H](Cc1ccccc1)NC(=O)C1=CN2C3C(=C(N4CCN(C)CC4)C(F)=CC3C1=O)OC[C@@H]2C)c1cccc2ccc(OC)cc12` (some centres undefined) gave an IC50 of 48 nM.

On to `COc1ccc2c(=O)c(CCCCCCCCCCC(F)(F)F)c(C)[nH]c2c1`, for which the IC50 with Plasmodium falciparum [1] worked out at 1 nM; in the assay with Plasmodium falciparum [2], 5 nM; with Plasmodium falciparum [3] it was 1 nM.

Take `CCCCc1c(C)[nH]c2cc(OC)ccc2c1=O`: the IC50 in the assay with Plasmodium falciparum [1] was determined as 29 nM; in the assay on Plasmodium falciparum [2], 92 nM; with Plasmodium falciparum [3], 29 nM.

`Cn1cc(C(=O)N/N=C/c2ccccn2)c(=O)c2cc(C(F)(F)F)ccc21` showed an IC50 in the assay on Plasmodium falciparum [4] of 6200 nM.

`Cn1cc(C(=O)N/N=C/c2ccccn2)c(=O)c2cc(F)ccc21` gave a 50% inhibitory concentration (IC50) with Plasmodium falciparum [4] of 3300 nM.

In the assay with Plasmodium falciparum [5], `C=CC1CC2CCC1CC2[C@H](OC(=O)[C@H](Cc1ccccc1)NC(=O)C1=CN(CC)C2C=C3OCOC3=CC2C1=O)c1cccc2ccc(OC)cc12` (some centres undefined) came in with an IC50 of 115 nM.

With `C=CC1CC2CCC1CC2[C@H](OC(=O)[C@H](C)NC(=O)C1=CN(CC)C2C=C3OCOC3=CC2C1=O)c1cccc2ccc(OC)cc12` (some centres undefined), inhibition in the assay on Plasmodium falciparum [5] was half-maximal at 29 nM (IC50).

Take `C=CC1CC2CCC1CC2[C@H](OC(=O)CNC(=O)C1=CN(CC)C2C=C(C)C=CC2C1=O)c1cccc2ccc(OC)cc12` (some centres undefined): the IC50 in the assay with Plasmodium falciparum [5] turned out to be 46 nM.

Consider `CCCCCCCc1c(C)nc2cc(OC)ccc2c1O`, for which the IC50 was 4 nM in the assay with Plasmodium falciparum [1], 11 nM in the assay on Plasmodium falciparum [2] and 3 nM in the assay on Plasmodium falciparum [3].

In the case of `CCCCCc1c(C)[nH]c2cc(OC)ccc2c1=O`, the IC50 was 8 nM in the assay with Plasmodium falciparum [1], 52 nM in the assay with Plasmodium falciparum [2] and 12 nM with Plasmodium falciparum [3].

As for `CCCCCCCc1c(C)[nH]c2cc(Cl)ccc2c1=O`, the IC50 in the assay on Plasmodium falciparum [1] is 6 nM; in the assay on Plasmodium falciparum [2] it was 64 nM; with Plasmodium falciparum [3] it was 2 nM.

In the assay with Plasmodium falciparum [5], `C=CC1CC2CCC1CC2[C@H](OC(=O)[C@@H](NC(=O)C1=CN(C2CC2)C2C=C(N3CCN(CC)CC3)C(F)=CC2C1=O)C(C)CC)c1cccc2ccc(OC)cc12` (some centres undefined) showed an IC50 of 207 nM.

On to `C=CC1CC2CCC1CC2[C@H](OC(=O)CNC(=O)C1=CN(C2CC2)C2C=C(N3CCN(CC)CC3)C(F)=CC2C1=O)c1cccc2ccc(OC)cc12` (some centres undefined), for which the IC50 in the assay with Plasmodium falciparum [5] turned out to be 28 nM.

Turning to `Cn1cc(C(=O)N/N=C/c2cccnc2)c(=O)c2cc(C(F)(F)F)ccc21`, the half-maximal inhibitory concentration (IC50) in the assay on Plasmodium falciparum [4] is over 100000 nM.

Regarding `CCCCCCCc1c(C)[nH]c2cc(OC(F)(F)F)ccc2c1=O`, the concentration for half-maximal inhibition (IC50) in the assay on Plasmodium falciparum [1] is 86 nM; in the assay on Plasmodium falciparum [2], 102 nM; with Plasmodium falciparum [3], 86 nM.

The compound `Cn1cc(C(=O)N/N=C/c2cccnc2)c(=O)c2cc(F)ccc21` had an IC50 in the assay with Plasmodium falciparum [4] of over 100000 nM.

The compound `Cn1cc(C(=O)N/N=C/c2ccncc2)c(=O)c2cc(C(F)(F)F)ccc21` gave an IC50 in the assay with Plasmodium falciparum [4] of over 100000 nM.

Regarding `Nc1ccc2c(=O)c3ccc(OCCCCCC(F)(F)F)cc3[nH]c2c1`, the IC50 in the assay on Plasmodium falciparum [1] stood at 0.02 nM; with Plasmodium falciparum [2] it was 78 nM; in the assay with Plasmodium falciparum [3], 0.02 nM.

In turn, `C=CC1CC2CCC1CC2[C@H](OC(=O)[C@H](C)NC(=O)C1=CN2C3C(=C(N4CCN(C)CC4)C(F)=CC3C1=O)OC[C@@H]2C)c1cccc2ccc(OC)cc12` (some centres undefined) gave an IC50 in the assay with Plasmodium falciparum [5] of 33 nM.

In the assay on Plasmodium falciparum [5], `C=CC1CC2CCC1CC2[C@H](OC(=O)CNC(=O)C1=CN2C3C(=C(N4CCN(C)CC4)C(F)=CC3C1=O)OC[C@@H]2C)c1cccc2ccc(OC)cc12` (some centres undefined) registered an IC50 of 12 nM.

For the compound `C=CC1CC2CCC1CC2[C@H](OC(=O)[C@@H](NC(=O)C1=CN(CC)C2C=C(C)C=CC2C1=O)C(C)C)c1cccc2ccc(OC)cc12` (some centres undefined), in the assay with Plasmodium falciparum [5], the IC50 came to 16 nM.
